Assay results reported in patent US10874669B2 (WAYNE STATE UNIVERSITY, priority 2018, dated 2020).

Legend:
cloned D3 receptors = cloned D3 receptors (Rattus norvegicus (Rat), UniProt P19020); experiment: [3H]spiperone displacement, cloned D3 receptors in HEK cells; format: binding; conditions: means±SEM for 3 experiments
Text: The following table provides inhibition constants for displacing [3H]spiperone binding to the cloned D2L and D3 receptors expressed in HEK cells. Results are means±SEM for 3 experiments each performed in triplicate. NR=Not repeated.

cloned rat D2L receptors = cloned rat D2L receptors (Rattus norvegicus (Rat), UniProt P61169); experiment: [3H]spiroperidol competition binding, rat D2L receptors in HEK-293 cells; conditions: values of Table 3; for Ki: rat D2 in HEK-293 cells; for D2/D3: ratio of Ki values
Text: (§1) All these procedures were described by us previously.

cloned rat D3 receptors = cloned rat D3 receptors (Rattus norvegicus (Rat), UniProt P19020); experiment: [3H]spiroperidol competition binding, rat D3 receptors in HEK-293 cells; conditions: rat D3 in HEK-293 cells; values of Table 3
Description: A well established radioligand competition assay was carried out to evaluate binding affinity of the test compounds and were compared with that of the reference agent (S)-5-OH-DPAT (Table 3). Binding affinity to rat DA D2 and D3 receptors expressed in HEK-293 cells was determined as described by us previously. […] This indicated highest tolerance of the 4-substituted carbazole derivative for interaction with the D2 and D3 receptors.
as §1

human DA D3 receptors = human DA D3 receptors (Homo sapiens (Human), UniProt P35462); experiment: [35S]GTPγS binding stimulation, human D3 receptors in CHO cells; format: biochemical
human DA D2 receptors = human DA D2 receptors (Homo sapiens (Human), UniProt P14416); experiment: [35S]GTPγS binding stimulation, human D2 receptors in CHO cells; format: biochemical
[1] = tested on: reserpine-induced hypolocomotion in rats; experiment: Reversal of reserpine-induced hypolocomotion in rats; conditions: 10 μMol/kg, ip
Description: In this model depletion of catecholamines by reserpine results in catalepsy in rats.
The following commercially available drug was used in the experiment: reserpine hydrochloride (Alfa Aesar). […] The compounds for this study were administered in a volume of 0.1-0.2 mL for subcutaneous administration and 0.5-0.7 ml for interaperitoneal administration into each rat.
In rodent studies, animals were male and female Sprague-Dawley rats from Harlan (Indianapolis, Ind.) weighing 220-225 g unless otherwise specified. Animals were maintained in sawdust-lined cages in a temperature and humidity controlled environment at 22±1° C. and 60±5% humidity, respectively. A 12 h light/dark cycle was maintained, with lights on from 6:00 a.m. to 6:00 p.m. They were group-housed with unrestricted access to food and water. All experiments were performed during the light component.
Reserpine (5.0 mg/kg, sc) was administered 18 h before the injection of drug or vehicle. The rats were placed individually in the chambers for 1 h for acclimatization before administration of the test drugs or vehicle. Immediately after administration of drug or vehicle, animals were individually placed in Opto-Varimex 4 animal activity monitor chamber (Columbus Instruments, Ohio, USA) to start measuring locomotor activity. Locomotion was monitored for 6 h. […] The data were presented as horizontal activity (HACTV). […] The data were analyzed by one-way analysis of variance (ANOVA) followed by Dunnett's post hoc test.

[2] = compared with maximum stimulation by full agonist DA

cloned rat D3 receptors, sequence (P19020 whole entry): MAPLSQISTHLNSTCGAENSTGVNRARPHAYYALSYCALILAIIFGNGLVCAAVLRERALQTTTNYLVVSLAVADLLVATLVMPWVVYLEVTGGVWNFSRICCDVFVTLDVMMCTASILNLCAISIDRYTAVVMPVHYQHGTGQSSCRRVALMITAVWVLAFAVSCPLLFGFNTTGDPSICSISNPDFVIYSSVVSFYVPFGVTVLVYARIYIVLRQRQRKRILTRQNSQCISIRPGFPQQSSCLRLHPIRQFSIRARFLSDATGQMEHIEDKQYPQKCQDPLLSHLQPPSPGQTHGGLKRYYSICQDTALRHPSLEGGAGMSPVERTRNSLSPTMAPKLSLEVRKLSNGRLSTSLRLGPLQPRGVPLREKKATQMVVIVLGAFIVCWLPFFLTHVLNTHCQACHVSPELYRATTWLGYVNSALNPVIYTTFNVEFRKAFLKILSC
cloned D3 receptors, sequence (P19020 whole entry): as above
cloned rat D2L receptors, sequence (P61169 whole entry): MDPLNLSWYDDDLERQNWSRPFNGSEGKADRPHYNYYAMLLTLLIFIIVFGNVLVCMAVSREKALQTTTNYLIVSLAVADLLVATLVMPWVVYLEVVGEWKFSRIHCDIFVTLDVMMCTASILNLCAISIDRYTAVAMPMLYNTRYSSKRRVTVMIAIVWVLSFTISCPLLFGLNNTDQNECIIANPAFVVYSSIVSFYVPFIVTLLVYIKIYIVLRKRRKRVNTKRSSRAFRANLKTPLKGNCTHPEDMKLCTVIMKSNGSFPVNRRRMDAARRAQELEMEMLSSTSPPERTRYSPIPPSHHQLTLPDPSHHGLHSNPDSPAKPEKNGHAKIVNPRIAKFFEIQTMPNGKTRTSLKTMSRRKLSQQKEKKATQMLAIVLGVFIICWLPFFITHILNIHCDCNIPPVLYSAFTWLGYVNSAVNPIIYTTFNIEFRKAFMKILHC
human DA D3 receptors, sequence (P35462 whole entry): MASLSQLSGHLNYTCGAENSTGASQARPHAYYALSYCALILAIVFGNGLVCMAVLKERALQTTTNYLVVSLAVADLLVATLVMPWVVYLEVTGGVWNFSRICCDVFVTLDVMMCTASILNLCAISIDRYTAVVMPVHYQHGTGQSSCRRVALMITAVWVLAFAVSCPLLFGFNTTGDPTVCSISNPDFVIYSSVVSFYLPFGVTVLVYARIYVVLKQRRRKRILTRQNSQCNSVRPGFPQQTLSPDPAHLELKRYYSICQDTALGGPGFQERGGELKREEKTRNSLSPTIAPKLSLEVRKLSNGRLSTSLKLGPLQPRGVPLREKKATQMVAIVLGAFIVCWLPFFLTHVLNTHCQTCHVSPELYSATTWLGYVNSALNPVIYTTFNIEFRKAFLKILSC
human DA D2 receptors, sequence (P14416 whole entry): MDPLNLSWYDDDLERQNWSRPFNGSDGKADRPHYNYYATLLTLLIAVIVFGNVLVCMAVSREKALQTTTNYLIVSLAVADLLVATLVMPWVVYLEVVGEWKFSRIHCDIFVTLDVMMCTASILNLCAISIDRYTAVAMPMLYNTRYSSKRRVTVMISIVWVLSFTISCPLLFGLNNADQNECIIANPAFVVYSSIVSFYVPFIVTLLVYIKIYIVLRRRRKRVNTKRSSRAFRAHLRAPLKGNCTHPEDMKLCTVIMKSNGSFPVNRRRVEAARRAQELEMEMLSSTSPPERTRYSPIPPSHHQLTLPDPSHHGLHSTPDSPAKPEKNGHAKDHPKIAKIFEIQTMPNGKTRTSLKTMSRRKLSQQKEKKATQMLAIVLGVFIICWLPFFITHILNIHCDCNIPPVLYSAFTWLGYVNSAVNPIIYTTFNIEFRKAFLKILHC

Row | Compound | Ki (cloned rat D2L receptors) | D2/D3 (cloned rat D2L receptors) | Ki (cloned rat D3 receptors) | also measured
1 | CCCN(CCCCCc1cc(O)ccc1O)[C@@H]1CCc2nc(N)sc2C1 [(−)-36, (R)-2-(5-((2-Amino-4,5,6,7-tetrahydrobenzo[d]thiazol-6-yl)(propyl)amino)pentyl)benzene-1,4-diol] | – | – | – | Ki (cloned D3 receptors): 0.78 ± 0.2 nM
2 | CCCN(CCN1CCN(c2ccc3c(c2)[nH]c2ccccc23)CC1)[C@H]1CCc2nc(N)sc2C1 [(−)-91a, (S)—N^6-(2-(4-(9H-carbazol-2-yl)piperazin-1-yl)ethyl)-N^6-propyl-4,5,6,7-tetrahydrobenzo[d]thiazole-2,6-diamine] | 504 nM | 128 | 3.94 nM | –
3 | CCCN(CCN1CCN(c2cccc3[nH]c4ccccc4c23)CC1)[C@H]1CCc2nc(N)sc2C1 [(−)-91c, (S)—N^6-(2-(4-(9H-carbazol-4-yl)piperazin-1-yl)ethyl)-N^6-propyl-4,5,6,7-tetrahydrobenzo[d]thiazole-2,6-diamine] | – | – | – | EC50 (human DA D3 receptors; CHO cells, read-out: EC50 (GTPγS), D3): 1.67 nM; Emax (human DA D3 receptors; [2]): 82%; EC50 (human DA D2 receptors; CHO cells, read-out: EC50 (GTPγS), D2): 22.2 nM; Emax (human DA D2 receptors; [2]): 57%
4 | CCCN(CCN1CCN(c2ccc3[nH]c4ccccc4c3c2)CC1)[C@H]1CCc2c(O)cccc2C1 [(−)-95b, (S)-6-((2-(4-(9H-carbazol-3-yl)piperazin-1-yl)ethyl)(propyl)amino)-5,6,7,8-tetra-hydronaphthalen-1-ol] | 61.6 nM | – | 1.94 nM | –
5 | CCCN(CCN1CCN(CCn2c3ccccc3c3ccccc32)CC1)[C@H]1CCc2nc(N)sc2C1 [(−)-101, (S)—N^6-(2-(4-(2-(9H-carbazol-9-yl)ethyl)piperazin-1-yl)ethyl)-N^6-propyl-4,5,6,7-tetrahydrobenzo[d]thiazole-2,6-diamine] | 82.6 nM | 12 | 7.18 nM | –
6 | CCCN(CCCCCc1cc(O)ccc1O)C1CCc2nc(N)sc2C1 (centres unmarked) [Compound 35, 2-(5-((2-Amino-4,5,6,7-tetrahydrobenzo[d]thiazol-6-yl)(propyl)amino)pentyl)benzene-1,4-diol] | – | – | – | Ki (cloned D3 receptors): 1.01 ± 0.28 nM
7 | CCCN(CCCC1(O)C=CC(O)=CC1)C1CCc2nc(N)sc2C1 (centres unmarked) [Compound 54, 4-(3-((2-Amino-4,5,6,7-tetrahydrobenzo[d]thiazol-6-yl)(propyl)amino)propyl)-benzene-1,4-diol] | – | – | – | Ki (cloned D3 receptors): 11.9 ± 1.9 nM
8 | CCCN(CCN1CCN(CCn2c3ccccc3c3ccccc32)CC1)C1CCc2nc(N)sc2C1 (centres unmarked) [Compound 100, N^6-(2-(4-(2-(9H-carbazol-9-yl)ethyl)piperazin-1-yl)ethyl)-N^6-propyl-4,5,6,7-tetrahydrobenzo[d]thiazole-2,6-diamine] | 435 nM | 65.9 | 6.6 nM | –
9 | CCCN(CCC)CCc1cccc2c1CC(=O)N2 [ropinirole, reference compound] | – | – | – | duration of locomotor activation ([1]; locomotion monitored for 6 h): shorter duration of action; reversal of reserpine-induced akinesia / hypolocomotion (horizontal activity) ([1]; reserpine 5 mg/kg sc, 18 h pretreatment, rats): fast onset of activation of locomotion

Further lines, with some results ahead:

Row | Ki (cloned rat D2L receptors) | D2/D3 (cloned rat D2L receptors) | Ki (cloned rat D3 receptors) | Compound | also measured
10 | 902 nM | 146 | 6.18 nM | CCCN(CCN1CCN(c2ccc3c(c2)[nH]c2ccccc23)CC1)C1CCc2nc(N)sc2C1 (centres unmarked) [Compound 90a, N^6-(2-(4-(9H-carbazol-2-yl)piperazin-1-yl)ethyl)-N^6-propyl-4,5,6,7-tetrahydrobenzo-[d]thiazole-2,6-diamine] | –
11 | 612 nM | 196 | 3.12 nM | CCCN(CCN1CCN(c2ccc3[nH]c4ccccc4c3c2)CC1)C1CCc2nc(N)sc2C1 (centres unmarked) [Compound 90b, N^6-(2-(4-(9H-carbazol-3-yl)piperazin-1-yl)ethyl)-N^6-propyl-4,5,6,7-tetrahydrobenzo[d]thiazole-2,6-diamine] | –
12 | 76.9 nM | 9.86 | 7.8 nM | CCCN(CCN1CCN(c2cccc3[nH]c4ccccc4c23)CC1)C1CCc2nc(N)sc2C1 (centres unmarked) [Compound 90c, N^6-(2-(4-(9H-carbazol-4-yl)piperazin-1-yl)ethyl)-N^6-propyl-4,5,6,7-tetrahydrobenzo[d]thiazole-2,6-diamine] | –
